Article PMC12537910, “Mosquito salivary sialokinin reduces monocyte activation and chikungunya virus-induced inflammation via neurokinin receptors” (Nature Communications, 2025)
Several values for one entry are separate records, joined by “and”; a condition that tells them apart may be missing. Identical values can stand only once. No end group written: not given here.

What was measured:
Type in all cases: cell-based
[1] = molecular target: T1, human NK1R (Homo sapiens, UniProt P25103)
T1 construct: expressed in transfected cells; host or cells: CHO (CHO-K1) cells, stably transfected; gift from Dr Shinya Oishi, Kyoto University
T1 sequence (P25103 whole entry): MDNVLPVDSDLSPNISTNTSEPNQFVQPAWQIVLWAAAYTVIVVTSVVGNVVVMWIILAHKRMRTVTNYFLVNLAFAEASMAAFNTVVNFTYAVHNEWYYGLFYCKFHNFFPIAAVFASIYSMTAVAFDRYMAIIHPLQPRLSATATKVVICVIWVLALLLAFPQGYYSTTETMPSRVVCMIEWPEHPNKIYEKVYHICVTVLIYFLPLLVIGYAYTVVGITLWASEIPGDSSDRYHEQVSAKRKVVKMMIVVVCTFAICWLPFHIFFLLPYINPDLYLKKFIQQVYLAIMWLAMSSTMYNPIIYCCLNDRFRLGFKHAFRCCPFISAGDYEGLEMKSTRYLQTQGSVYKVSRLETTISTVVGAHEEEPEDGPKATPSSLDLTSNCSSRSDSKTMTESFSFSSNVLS
Description: (§1) Supplementary Fig. 1: Molecular properties of sialokinin and its binding affinities to human neurokinin
(§2) (1 picture or pasted object on this page, not shown here)

[2] = test system: PI3K; assay: Western blot P-PI3K/PI3K, human monocytes; conditions: for effect on sialokinin-stimulated phosphorylation of PI3K: antagonist pre-treatment
Procedure: (§3) DEG analysis was performed using edgeR, with multiple testing corrected via the Benjamini–Hochberg FDR method. […] Relative expression levels of P-PI3K/PI3K (n = 4 biological replicates) and P-Akt/Akt (n = 5 biological replicates) in monocytes at the 20-min time point were quantified with ImageJ. Levels are expressed as fold change relative to the non-treated controls. Bar graphs represent the mean ± standard deviation (SD). […] CD169 levels at 24 h post-treatment were measured by mean fluorescence intensity (MFI) and expressed as fold change relative to non-treated controls. Statistical comparisons were performed using paired two-tailed t-test or Wilcoxon signed-rank test, depending on data distribution.
(§4) Freshly purified human monocytes and six-day-differentiated MDMs ([…] cells/well) were incubated with or without sialokinin peptides in complete IMDM supplemented with 10% (vol/vol) HS (Sigma-Aldrich) and 1% (vol/vol) penicillin-streptomycin. Untreated monocytes and MDMs served as no-treatment controls.
(§5) To detect the phosphorylation status of PI3K/Akt kinases following sialokinin stimulation, cells were lysed with lysis buffer (Cell Signaling Technology) containing 2 mM PMSF. Lysates were separated by SDS-PAGE and subjected to western blotting using the following antibodies: P-PI3K (p85; Tyr458/p55; Tyr199, Cell Signaling Technology, 1:2000), PI3K (p85, Cell Signaling Technology, 1:2000), P-Akt (Ser473, Cell Signaling Technology, 1:2000), and Akt (Cell Signaling Technology, 1:2000). Signal intensities were visualized using a ChemiDoc imaging system (Bio-Rad) and quantified using Image Lab software version 6.0.1 (Bio-Rad).

[3] = test system: Akt; assay: Western blot P-Akt/Akt, human monocytes; conditions: for effect on sialokinin-stimulated phosphorylation of Akt: antagonist pre-treatment
Procedure: as §3, §4, §5

[4] = test system: primary human monocytes; assay: CD169 expression after antagonist/inhibitor pre-treatment and sialokinin, monocytes; conditions: for CD 169 expression (MFI): monocytes 24 h, n = 5; for effect on sialokinin-mediated downregulation of CD169: pre-treatment 30 min before sialokinin, monocytes
Procedure: as §3, §4
Following harvesting, human monocytes and MDMs were specifically stained for the surface markers: CD45, CD14, CCR2, HLA-DR, CD16, CD11b, and CD169 (for monocytes); or CD45, CD14, HLA-DR, CD64, CD86, CD163, CD206, and CD169 (for MDMs). Dead cells were excluded by staining with the LIVE/DEAD Fixable Aqua Dead Cell Stain Kit (Life Technologies). The stained cells were subsequently incubated with FACS lysing solution (BD Biosciences) to lyse the red blood cells. Data were acquired on a Fortessa flow cytometer (BD Biosciences) with BD FACSDiva software version 9.0. Data analysis was performed using FlowJo version 9.3.2 (Tree Star, Inc.).

[5] = molecular target: T1, human NK1R; assay: Calcium flux assay, CHO cells expressing human NK1R; conditions: CHO-K1 cells expressing human NK1R; FLIPR; mean ± SEM of three independent experiments in triplicate; read-out: EC50 (peak calcium response)
Procedure: (§6) We assessed the binding affinity of sialokinin I, the predominant form in Aedes saliva, for human NK receptors using a calcium flux assay.
(§7) Calcium flux assay was carried out on CHO cells stably transfected with one of the human NK receptors (NK1R, NK2R, or NK3R). CHO cells were seeded at a density of 70,000 cells/well in 100 µL of Ham’s F-12 media in a black 96-well clear-bottom plate (Greiner). After overnight incubation, the media was replaced with Calcium 6 assay dye from Molecular Devices (1:1 dilution with buffer solution of 1× HBSS containing 20 mM HEPES) followed by incubation for 2 h at 37 °C for the absorption of dye into the cytoplasm. The intracellular calcium ion flux analysis was performed at different concentrations of sialokinin (tenfold dilution) using a FLIPR Tetra instrument (Molecular Devices). Fluorescence signal was recorded at excitation and emission wavelengths of 485 nm and 535 nm, respectively. The change in fluorescence is presented as the percent change with respect to baseline fluorescence. EC50 values were determined from dose-response curves plotted using Prism 5 (GraphPad).
as §1, §2

[6] = molecular target: T2, human NK2R (Homo sapiens, UniProt P21452); assay: Calcium flux assay, CHO cells expressing human NK2R; conditions: CHO-K1 cells expressing human NK2R; FLIPR; mean ± SEM of three independent experiments in triplicate; read-out: EC50 (peak calcium response)
T2 construct: expressed in transfected cells; host or cells: CHO (CHO-K1) cells, stably transfected; gift from Dr Shinya Oishi, Kyoto University
T2 sequence (P21452 1-398): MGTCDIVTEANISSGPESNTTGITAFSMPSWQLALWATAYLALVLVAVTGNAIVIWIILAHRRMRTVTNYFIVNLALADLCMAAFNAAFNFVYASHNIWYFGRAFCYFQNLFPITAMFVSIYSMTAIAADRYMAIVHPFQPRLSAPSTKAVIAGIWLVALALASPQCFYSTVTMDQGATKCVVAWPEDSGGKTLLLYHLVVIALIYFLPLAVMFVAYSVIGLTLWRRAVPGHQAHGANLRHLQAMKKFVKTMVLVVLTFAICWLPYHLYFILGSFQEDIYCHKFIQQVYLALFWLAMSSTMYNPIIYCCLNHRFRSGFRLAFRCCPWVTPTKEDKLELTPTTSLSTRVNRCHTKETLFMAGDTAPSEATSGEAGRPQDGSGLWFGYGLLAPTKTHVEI
Procedure: as §6, §7, §1, §2

[7] = molecular target: T3, human NK3R (Homo sapiens, UniProt P29371); assay: Calcium flux assay, CHO cells expressing human NK3R; conditions: CHO-K1 cells expressing human NK3R; FLIPR; mean ± SEM of three independent experiments in triplicate; read-out: EC50 (peak calcium response)
T3 construct: expressed in transfected cells; host or cells: CHO (CHO-K1) cells, stably transfected; gift from Dr Shinya Oishi, Kyoto University
T3 sequence (P29371 1-465): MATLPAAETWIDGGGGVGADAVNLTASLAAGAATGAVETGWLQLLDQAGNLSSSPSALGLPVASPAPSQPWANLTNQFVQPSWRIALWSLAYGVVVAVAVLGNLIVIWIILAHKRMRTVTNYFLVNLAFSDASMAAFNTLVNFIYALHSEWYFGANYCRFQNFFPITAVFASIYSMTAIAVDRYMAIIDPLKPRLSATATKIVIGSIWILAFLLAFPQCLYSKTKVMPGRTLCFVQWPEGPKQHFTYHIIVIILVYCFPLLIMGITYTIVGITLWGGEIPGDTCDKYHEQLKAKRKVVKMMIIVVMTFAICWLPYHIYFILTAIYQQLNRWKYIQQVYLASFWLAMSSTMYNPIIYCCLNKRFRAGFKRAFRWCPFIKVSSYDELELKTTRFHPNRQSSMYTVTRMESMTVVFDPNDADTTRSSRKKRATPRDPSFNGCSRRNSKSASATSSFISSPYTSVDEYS
Procedure: as §6, §7, §1, §2

[8] = GR-159897 + sialokinin, individual replicates

COc1ccccc1CN[C@H]1C2CCN(CC2)[C@H]1C(c1ccccc1)c1ccccc1 [CP-96345]
effect on Emax of sialokinin at NK1R [1]: without affecting the Emax value | effect on sialokinin-stimulated phosphorylation of PI3K [2]: reduced | effect on sialokinin-stimulated phosphorylation of Akt [3]: reduced | CD 169 expression (MFI) ([4]; CP-96345 + sialokinin, individual replicates): 387 MFI and 396 MFI and 194 MFI and 919 MFI and 1966 MFI | CD 169 expression (MFI) ([4]; CP-96345 inhibitor only, individual replicates): 586 MFI and 529 MFI and 236 MFI and 1225 MFI and 3060 MFI | effect on sialokinin-mediated downregulation of CD169 [4]: only partially neutralized

COC1(C[S@@+]([O-])c2ccccc2)CCN(CCc2c[nH]c3ccc(F)cc23)CC1 [GR-159897]
effect on sialokinin-stimulated phosphorylation of PI3K [2]: reduced | P-PI3K/PI3K (expression relative to untreated control) ([2]; pre-treatment with NK2R antagonist then sialokinin, 20 min, individual replicates, n = 4): 0.877 and 0.977 and 0.987 and 0.967 | effect on sialokinin-stimulated phosphorylation of Akt [3]: reduced | P-Akt/Akt (expression relative to untreated control) ([3]; pre-treatment with NK2R antagonist then sialokinin, 20 min, individual replicates, n = 5): 0.9906 and 1.222 and 1.192 and 0.816 and 0.7836 | CD169 relative fold change [4, 8]: 0.8629 and 0.8036 and 0.6381 and 0.8197 and 0.5757 | CD 169 expression (MFI) [4, 8]: 1530 MFI and 1669 MFI and 977 MFI and 2300 MFI and 1731 MFI | CD 169 expression (MFI) ([4]; GR-159897 inhibitor only, individual replicates): 1773 MFI and 2077 MFI and 1531 MFI and 2806 MFI and 3007 MFI | effect on sialokinin-mediated downregulation of CD169 [4]: only partially neutralized

O=c1cc(N2CCOCC2)oc2c(-c3ccccc3)cccc12 [LY-294002]
CD 169 expression (MFI) ([4]; LY-294002 + sialokinin, individual replicates): 182 MFI and 164 MFI and 106 MFI and 91.9 MFI and 143 MFI | CD 169 expression (MFI) ([4]; LY-294002 inhibitor only, individual replicates): 216 MFI and 280 MFI and 107 MFI and 103 MFI and 164 MFI | effect on sialokinin-mediated downregulation of CD169 [4]: completely blocked

NTGDKFYGLM-NH2 [Sialokinin I]
EC50 [5]: 0.052 ± 0.028 nM | EC50 [6]: 0.288 ± 0.107 nM | EC50 [7]: 1.29 ± 0.281 nM
